The results in this text go back to US10085955B2, “Methods and compositions for treatment of demyelinating diseases” (Pathologica LLC, priority 2013, dated 2018).

Molecules are shown by their SMILES. Like-named read-outs stand apart in the source and are kept apart here.

The nature of data set [1]: Rhesus macaque single-dose pharmacokinetics. It is filed as in vivo, rhesus monkeys. The following applies: plasma, mean. Here is the method:
Two groups of three male rhesus monkeys were fasted overnight before being administered the test article, MGBG, as either a single bolus intravenous dose of 1 mg/kg (Group 1) or as a single oral gavage dose of 10 mg/kg (Group 2). Dose formulation analysis verified administered dose solutions as within 14% of targeted concentrations of 1 and 10 mg/kg for Groups 1 and 2, respectively.
Blood samples were collected into tubes containing lithium heparin from the femoral vein/artery (approximately 1.0 mL) for plasma MGBG concentration measurement from all intravenously dosed animals prior to dosing and at approximately T=0.083 (5 min), 0.25 (15 min), 0.5 (30 min), 1, 2, 4, 8, and 24 hours after dosing. Blood samples for plasma MGBG concentration measurement were collected from all orally dosed animals prior to dosing at approximately T=1, 2, 4, 8, 12, 24, and 36 hours after dosing. Food was also withheld through the first four hours of blood sample collection.
The samples were centrifuged under refrigerated conditions following completion of sample collection at each interval. The resulting plasma was separated and stored frozen at approximately −70° C. until analysis.
PK analysis was performed on the individual plasma concentration-time profiles for MGBG using the WinNonlin non-compartmental approach (linear trapezoidal rule for AUC calculations). Nominal dose values and sampling times were used for calculations. All MGBG plasma concentration measurements reported as BQL (<2.51 ng/mL) were set equal to zero for the purpose of analysis. Following IV and PO administration of MGBG, plasma PK disposition parameters were calculated using the WinNonlin default selection criteria for the selection of the Lambda Z.
Consequently, a model-dependent two-compartmental analysis was used to calculate bioavailability.

In data set [2] the test system is PGE2 production in carrageenan air pouch. Nature of the data set: Carrageenan air pouch model. Format: in vivo, Lewis rats. The text has this: Injection of air subcutaneously will induce the formation of a connective tissue cavity lined with cells that resemble and function like a synovial lining. This method is commonly known as the Air Pouch Model and is a useful animal model of inflammation that can be generated in a relatively short period of time. The air pouch may be created by subcutaneous (SQ) injection of a volume of sterile air in the dorsal neck region. The model may be used to test the efficacy and potency of compounds such as polyamine analogues and polyamine biosynthesis inhibitors such as MGBG in reducing various cellular and biochemical indicators of inflammation when administered as an oral (PO) gavage administration. Healthy Male Lewis rats (Charles River Laboratories, Wilmington, Mass.) weighing between 175-200 g were used. […] A correction factor of 1.49 was used to account for the dihydrochloride salt/monohydrate form of MGBG. […] Air pouches were formed on the dorsum of the rats during the last 4 days of MGBG or vehicle administration prior to carrageenan injection. Briefly, rats were anesthetized with isoflurane, during which dorsal hair was removed and 20 mL of sterile air was injected subcutaneously into the intrascapular region. Pouches were allowed to develop for the next 4 days, with re-inflation (to maintain pouch volume) of pouches 1 day prior to carrageenan injection. One hour prior to carrageenan injection, animals were given their last dose of drug (MGBG, vehicle, naproxen, or dexamethasone). A 1% suspension of carrageenan (2 mL; FMC BioPolyer, Philadelphia, Pa.) suspended in saline was injected into the pouch cavity. At either 3 hours or 24 hours post-carrageenan injection, rats were euthanized by CO2 asphyxiation and 2.5 mL of PBS (Sigma Chemical, St. Louis, Mo.) was injected directly into the pouch. The pouch was opened with surgical scissors and the pouch fluid was collected using a transfer pipette. One aliquot was collected for measurement of total cell count with differential, and the other aliquot for PGE2 determination. […]

Details of data set [3]: species or system DBA/1 mice. The settings on record: male, DBA/1, mouse, in vivo. Here is the method: Twenty-four male DBA/1 mice weighing 19.5-24.7 g and aged 7-9 weeks administered the test article, MGBG, as either a single bolus intravenous dose via a lateral tail vein of 1 mg/kg (Group 1, n=12) or as a single oral gavage dose of 10 mg/kg (Group 2, n=12). Each dose group consisted of 4 cohorts of 3 animals each. Group 1 was sampled at 5, 15, and 30 minutes after dosing; and 1, 2, 4, 8, and 24 hours after dosing. Group 2 was sampled at 1, 2, 4, 8, 12, 24, and 36 hours after dosing. Starting with the first time point, a new cohort was sampled at each successive time point up to the 1-hour (Group 1) or […] (Group 2) time point. The order of sampling among the cohorts was repeated for the subsequent time points (some cohorts may have been bled only once). The second bleed for each cohort was terminal. Animals were sacrificed via CO2 inhalation anesthesia after final blood collection.
The samples were centrifuged under refrigerated conditions following completion of sample collection at each interval. The resulting plasma was separated and stored frozen at approximately −70° C. until analysis. Analysis was performed by LC/MS/MS. Pharmacokinetic analyses were performed on the mean MGBG plasma concentration versus time data using the non-compartmental approach (linear trapezoidal rule for AUC calculations). The WinNonlin sparse sampling tool was used for PK calculations.
The second method used to convert the efficacious 60 mg/kg/day dose in mice to an equivalent dose in humans was based more directly on allometric scaling. Data from an MGBG pharmacokinetic study consisting of a 10 mg/kg oral dose in mice was modeled in a simulation to determine the theoretical AUCINF value for a dosing regimen of 30 mg/kg PO BID, which was 9050 h*ng/mL. Next, predicted human clearance values as determined by single- and multi-species allometric scaling were used to estimate doses likely to produce an exposure in humans (AUCINF) similar to that of the 60 mg/kg/day in mice. […] Using multi-species allometric scaling, the predicted human equivalent dose is about 4.2 mg/kg/day.

Setting [4] is: oral gavage 10 mg/kg single dose.

For `CC(/C=N/NC(=N)N)=N\NC(=N)N` [MGBG, 1,1′ [methylethanediylidene]dinitrilodiguanidine], the Clobs in data set [1] (IV 1 mg/kg single bolus) amounted to 13.7 mL/min/kg; in data set [1] (setting [4]), 6.63 mL/min/kg; in data set [3] (iv, 1 mg/kg) it was 49.6 mL/min/kg; in data set [3] (po, 10 mg/kg) it was 6.68 mL/min/kg. Besides, the VSSobs came out at 13.2 L/kg in data set [1] (IV 1 mg/kg single bolus) and 38.3 L/kg in data set [3] (iv, 1 mg/kg). Also, the Vd in data set [1] (setting [4]) is 13.2 L/kg; in data set [3] (po, 10 mg/kg), 38.3 L/kg. In addition, the “production of PGE2 (inflammatory and basal levels)” value in data set [2] (rat pouch fluid, 3 or 24 hours post-carrageenan, naproxen 10 mg/kg, dexamethasone 1 mg/kg) is reported as “selectively inhibited peak inflammatory production of PGE2, without affecting basal levels”. Besides, the “efficacy, changes relative to control indicative of reduced inflammation” value in data set [2] (rats, MGBG 1-60 mg/kg PO once daily 6 days) was “efficacious”.
